Assay results from patent US20230092389A1, “UNIT DOSES, AEROSOLS, KITS, AND METHODS FOR TREATING HEART CONDITIONS BY PULMONARY ADMINISTRATION” (InCarda Therapeutics, Inc., priority 2017, published 2023).
Read-outs that look alike come from different tables or passages of the source. Blank lines part the entries; values can stand above or below the molecule they belong to.

Key:
[1] = tested on: dogs with induced supraventricular tachycardia; test: Induced supraventricular tachycardia (SVT) model, IT vs IV, anesthetized dogs (Example 2); type: in vivo, dog; conditions: for cardiovascular effect when given by intratracheal instillation: summary of Example 2
Experimental: Supraventricular Tachycardia Model:
A venous catheter was placed in a peripheral vessel (i.e., cephalic) for administration of anesthetic(s). For anesthesia induction, all animals were given a combination of diazepam (˜0.5 mg/kg) and ketamine (˜10 mg/kg) intravenously through this venous catheter. Anesthesia was sustained until completion of the study with an intravenous infusion of pentobarbital (5-15 mg/kg/hr). Following induction, animals were endotracheally intubated and mechanically ventilated (˜12 breaths/min with a tidal volume of 200-300 mL).
Subsequently, a cut-down on a jugular vein permitted the introduction of a pacing lead into the right atrium. Similarly, for arterial pressure monitoring, a solid-state micromanometer catheter (Millar Instruments) was advanced into the aortic root via a cut-down over an artery (e.g., femoral, carotid). Transthoracic electrodes forming ECG lead II was placed. For vehicle/test article delivery, a 4F catheter was introduced through the trachea and wedged into a small airway, and a venous catheter was placed in a peripheral vessel (i.e., cephalic).
Following instrumentation/hemodynamic stabilization (for at least 15 minutes), right atrial pacing (5-10 V, 40 Hz, 2 ms pulses) was established in order to induce supraventricular tachycardia (SVT); pacing and SVT was sustained throughout the duration of the experiments. Approximately 5 minutes after onset of SVT and while monitoring ECG/arterial pressure continuously, the animals were administered three escalating doses (one at a time) of a test article; each dose was delivered as a bolus (˜3 mL) directly into a small airway through the intratracheal catheter (IT). Following dosing, the heart-rate (HR) and arterial pressure response were monitored for 15 minutes.
Subsequently (once the response to three IT doses had been recorded), hemodynamic recovery was allowed for approximately 30 minutes, and the electrocardiographic/hemodynamic response to the highest test-article dose was re-evaluated; however, for comparison purposes, this dose was delivered intravenously (IV).
Overall, two groups/test-articles were studied, and up to two animals were assigned to each group (n=2/group): one group received esmolol HCL (0.5-1.0 mg/kg, ESM), while the other received adenosine (0.25-1.0 mg/kg, ADN); only one test article was administered to per animal.

[2] = tested on: dogs with induced atrial fibrillation; type: in vivo, dog; conditions: for conversion of induced atrial fibrillation to normal sinus rhythm: pulmonary dose 0.25 mg/kg body weight; for cardiovascular effect when given by intratracheal instillation: summary of Example 2
Experimental: Atrial Fibrillation Model: A venous catheter was placed in a peripheral vessel (i.e., cephalic) for administration of anesthetic. […] Following induction, animals were endotracheally intubated and mechanically ventilated (˜12 breaths/minute with a tidal volume of 200-300 mL). Subsequently, a cut-down on a jugular vein permitted introduction of a pacing lead into the right atrium. Transthoracic electrodes forming ECG lead II were placed. For test/vehicle article delivery, a 4F catheter was introduced through the trachea and wedged into a small airway, and a venous catheter was placed in a peripheral vessel (i.e., cephalic). […] Approximately 5 min after administration of this parasympathomimetic was started; the following experiments were performed: […] Observations were made for up to 10 minutes. […] Vehicle was only water.

physchem = conditions: water

- drop in MAP ([1]; via the lung, any of the doses): did not cause a drop in MAP
Structure (SMILES): COC(=O)CCc1ccc(OCC(O)CNC(C)C)cc1 (stereo not shown) [esmolol]
- AV block ([1]; 0.5 mg/kg via the lung (FIGS. 17, 18)): period of AV block induced
- AV block ([1]; 0.75 mg/kg via the lung (FIG. 20)): period of AV block induced
- PR intervals in the ECG traces ([1]; elevating doses, IT): prolonging the PR intervals
- electrophysiological effects ([1]; higher dose 1.0 mg/kg): did not produce the same electrophysiological effects
- AV block ([1]; lower doses, via the lung (IT)): 2nd degree AV block
- cardiovascular effect when given by intratracheal instillation [1]: probable effect

- Mean Arterial Pressure (MAP) ([1]; dog, in vivo, iv, 0.25 mg/kg): dropped significantly in both cases
- pH of solution in water (3.5 mg/mL solution): 6.7
- appearance of solution (diltiazem hydrochloride 50 mg/ml, flecainide acetate 30 mg/ml in distilled water): clear with no visible particulate matter
- solubility (physchem): > 90 mg/mL
Structure (SMILES): COc1ccc([C@@H]2Sc3ccccc3N(CCN(C)C)C(=O)[C@@H]2OC(C)=O)cc1 [diltiazem]
- comparison of pulmonary and IV routes ([1]; 0.25 mg/kg (FIGS. 14, 15)): comparable in all aspects
- PR interval ([1]; IV or pulmonary, 0.25 mg/kg): prolonged the PR interval
- timing of the electrophysiological change ([1]; IV vs pulmonary): comparable between IV and pulmonary
- mean arterial blood pressure (MAP) ([2]; dog, in vivo, 0.25 mg/kg): notable drop
- PQ interval ([2]; pulmonary dose 0.25 mg/kg): prolonged the PQ interval
- heart rate ([2]; pulmonary dose 0.25 mg/kg): slowed down but marginally
- conversion of induced atrial fibrillation to normal sinus rhythm ([2]; 0.25 mg/kg): converted the induced atrial fibrillation to normal sinus rhythm
- conversion of induced atrial fibrillation to normal sinus rhythm ([2]; listed as diltiazem HCl, 0.25 mg/kg): Afib converting after administration
- cardiovascular effect when given by intratracheal instillation [2]: clear cardiovascular effect

Structure (SMILES): Nc1ncnc2c1ncn2[C@@H]1O[C@H](CO)[C@@H](O)[C@H]1O [adenosine]
- effect on the heart ([1]; administered via the lung): did not have any effect on the heart
- cardiovascular effect when given by intratracheal instillation [1]: clear response was not observed

Structure (SMILES): CN(CCOc1ccc(NS(C)(=O)=O)cc1)CCc1ccc(NS(C)(=O)=O)cc1 [dofetilide]
- heart rate ([2]; escalating pulmonary doses of 10-40 mcg/kg body weight): minor reduction in heart rate
- effect on induced atrial fibrillation ([2]; pulmonary (IT) administration): marginally slowed the ventricular rate
- cardiovascular effect when given by intratracheal instillation [2]: probable effect
